How the values were obtained:
[1] = tested on: F. prausnitzii; test: Stability of F. prausnitzii synbiotic formulations after exposure to ambient air (CFU count); parameters: species or system Faecalibacterium prausnitzii; conditions: ingredient in lyophilized formulation
Procedure: To produce a formulation with living faecalibacteria that are stable for at least 24 h under aerobic conditions, series of experiments were performed with different combinations of ingredients. Faecalibacteria were grown overnight in broth culture medium, centrifuged and the pellet was washed with anaerobic phosphate buffered saline (PBS) and centrifuged again. The mixtures were frozen at −20° C. and subsequently lyophilized.
After lyophilizing, the formulations were exposed to air for the indicated time periods. The preparations were re-suspended in phosphate buffer and a 10 fold-dilution series was plated on anaerobic growth medium agar. The Colony-forming units were counted and compared with a non exposed t=0 time point.
The lyophilized granules obtained according to step 2 were stored in air tight containers under ambient aerobic conditions. For stability and viability studies granules were exposed to the ambient air at defined period up to 24 h. After aerobic exposures the granules were processed anaerobically under anaerobic tent. The granules were diluted and rehydrated in oxygen free phosphate buffered saline (pH 7.2) supplemented with 0.05% cysteine and ten-fold dilution series were plated on YCFAG agar medium. Colony forming units were determined by counting the colonies formed on the agar plates after 24 h of incubations at 37° C.

[2] = tested on: Faecalibacterium prausnitzii; test: Riboflavin intervention trial: FISH count of F. prausnitzii in fecal samples; assay type: in vivo, human
Procedure: (§1) A human intervention study was performed to investigate the effect of riboflavin on the numbers of Faecalibacterium prausnitzii in the gut. A group of 8 volunteers (body weight 60 to 90 kg) were asked to take 1 oral dose of 100 mg riboflavin supplement per day for 14 days.
(§2) Two samples were taken in a period of two weeks before the intake, as baseline samples, two samples (one per week) were taken during the intake and one sample a week after intake. The number of F. prausnitzii and that of other bacterial groups were determined by FISH with a specific probes as describe before (Harmsen et al. Appl Environ Microbiol. 2002 June; 68(6):2982-90). The numbers of faecalibacteria of the samples taken before and during the intake were averaged and all samples were plotted in FIG. 1.

[3] = tested on: Clostridium group XIVa; test: Riboflavin intervention trial: FISH count of Clostridium group XIVa in fecal samples; assay type: in vivo, human; conditions: 8 volunteers, 100 mg/day oral riboflavin for two weeks
Procedure: as §1, §2

[4] = tested on: Enterobacteriaceae, E. coli-like bacteria; test: Riboflavin intervention trial: count of E. coli-like bacteria in fecal samples; assay type: in vivo, human
Procedure: as §1, §2

[5] = tested on: Enterococci; test: Riboflavin intervention trial: count of Enterococci in fecal samples; assay type: in vivo, human; conditions: during the intervention, 100 mg/day riboflavin
Procedure: as §1, §2

[6] = Butyrate production in human volunteers on oral riboflavin; assay type: in vivo; conditions: orally administered riboflavin

O=C1O[C@H]([C@@H](O)CO)C(O)=C1O [ascorbic acid]
protective effect on faecalibacteria against ambient air exposure [1]: not observed

N[C@@H](CS)C(=O)O [cysteine]
protective effect on faecalibacteria against ambient air exposure [1]: provide the protective effect

O=c1c(O)c(-c2ccc(O)c(O)c2)oc2cc(O)cc(O)c12 [quercitin]
protective effect on faecalibacteria against ambient air exposure [1]: not observed

Cc1cc2nc3c(=O)[nH]c(=O)nc-3n(C[C@H](O)[C@H](O)[C@H](O)CO)c2cc1C [riboflavin]
percentage F. prausnitzii of the total bacteria ([2]; 8 volunteers, 100 mg/day oral riboflavin for 14 days, feces): increased in 7 out of 8 samples
number of faecalibacteria in fecal samples ([2]; 8 volunteers, 1 oral dose of 100 mg riboflavin per day for 14 days, pre, during, post intake, FISH): increased during intake and decreased again when the intake ceases
ratio faecalibacteria/Clostridium group XIVa ([2]; calculated from before and from during intake, 100 mg/day riboflavin): increased in all cases
number of Clostridium group XIVa bacteria in fecal samples [3]: did not increase
number of E. coli(-like bacteria) in fecal samples ([4]; during riboflavin intake, 100 mg/day for two weeks, all individuals tested): decreased or remained the same
ratio of faecalibacteria to E. coli-like bacteria ([4]; upon administration of riboflavin, 100 mg/day): the ratio shifted towards faecalibacteria
number of Enterococci in fecal samples [5]: did not increase during the intervention
butyrate production [6]: enhanced
protective effect on faecalibacteria against ambient air exposure [1]: provide the protective effect

Source: US20180207165A1, “METHODS AND COMPOSITIONS FOR STIMULATING BENEFICIAL BACTERIA IN THE GASTROINTESTINAL TRACT” (Rijksuniversiteit Groningen, priority 2012, published 2018)
